Laboratory results: patent publication US20130217712A1, “[…] FOR EGFR INHIBITOR TREATMENT” (Hoffmann-La Roche Inc., priority 2007, published 2013)

Assays:
[1] = patients with cancer, 150 mg/day dose; 500 ng/ml is the average concentration targeted for clinical efficacy; cited from earlier work
[2] = tested on: patients with advanced NSCLC following failure of at least one prior chemotherapy regimen; experiment: Open-label Phase II predictive marker identification study of Tarceva monotherapy, response by RECIST and survival; assay type: in vivo, human; details: all enrolled patients n=264; oral 150 mg/day
Method: The selection of this dose was based on pharmacokinetic parameters, as well as the safety and tolerability profile of this dose observed in Phase I, II and III trials in heavily pre-treated patients with advanced cancer. Drug levels seen in the plasma of patients with cancer receiving the 150 mg/day dose were consistently above the average plasma concentration of 500 ng/ml targeted for clinical efficacy.
This was an open-label, predictive marker identification Phase II study. The study was conducted in approximately 26 sites in about 12 countries. 264 patients with advanced NSCLC following failure of at least one prior chemotherapy regimen were enrolled over a 12 month period. […] Dose reductions were permitted based on tolerability to drug therapy. Clinical and laboratory parameters were assessed to evaluate disease control and toxicity. Treatment continued until disease progression, unacceptable toxicity or death. The study design is depicted in FIG. 1.
The RECIST (Uni-dimensional Tumor Measurement) criteria were used to evaluate response. […]
A regular status check every 3 months was performed either by a patient's visit to the clinic or by telephone. All deaths were recorded. […]

Question: What does the source list for C#Cc1cccc(Nc2ncnc3cc(OCCOC)c(OCCOC)cc23)c1 [Erlotinib, erlotinib]?
Answer: drug level in plasma [1]: > 500 ng/mL; Median overall survival [2]: 7.6 (CI 7-9) months; median progression-free survival [2]: 11.3 (CI 8-12) weeks
